Counter-ions that a name gives are not always drawn.
Tests used:
human sperm motility = experiment: Sperm motility assessment by CASA after PDEi treatment (screening of 43 PDEi); format: cell-based; conditions: for Effect on Sperm Motility: Mild / Effect on Sperm Motility: Strong: X or (X) marks the class, PDEi tested blinded at 1, 10 and 100 μM, 20 min at 37° C., CASA
Description: Almost all phosphodiesterase inhibitors (PDEi) were purchased from Tocris Bioscience (Bristol, UK) and the other inhibitors from Sigma-Aldrich (Dorset, UK) or Santa Cruz Biotechnology (Heidelberg, Germany) by the Drug Discovery Unit (DDU) at the College Life Sciences (University of Dundee, UK) as shown in Table 1. The DDU coded the PDEi upon arrival and the coded samples were tested for sperm function with a primary focus on sperm motility. All 43 PDEi were analyzed blinded with three independent times for quantitative sperm motility using three different final concentrations (1, 10 and 100 μM).
All chemicals were purchased from Sigma-Aldrich. Two different media were used 1-medium not supporting sperm capacitation NCM: 1.8 mM CaCl2, 5.4 mM KCl, 0.8 mM MgSO4.7H2O, 116.3 mM NaCl, 1.0 mM NaH2PO4, 5.55 mM D-glucose, 2.73 mM sodium pyruvate, 41.75 mM sodium lactate, 25 mM HEPES and 2-supporting capacitation CM: 1.8 mM CaCl2, 5.4 mM KCl, 0.8 mM MgSO4.7H2O, 116.3 mM NaCl, 1.0 mM NaH2PO4, 5.55 mM D-glucose, 2.73 mM sodium pyruvate, 25 mM sodium lactate, 26 mM sodium bicarbonate. Semen samples were obtained from healthy donors (normozoospermic) and samples were produced by masturbation into a sterile plastic container after 2-3 days of sexual abstinence. Two different sperm populations were isolated from the semen using a 40-80% discontinuous density gradient procedure. Briefly, 1 ml of semen was loaded after 30 min of liquefaction at 37° C. on the top of a colloidal silica suspension (Pure Sperm™, Nidacon, Mölndal, Sweden) made of 80% and 40% layered (2 ml each). The density gradient was centrifuged at 300×g for 20 min at room temperature. The motile population was found at the bottom of the 80% fraction and the poor motility population was recovered at the interface of 40-80%, respectively called 80% and 40% fraction. Both fractions were washed using a NCM, cells were isolated by a centrifugation for 5 min at 500×g and the sperm pellet was rediluted using a NCM or CM at ˜20-25×10^6 cells/ml. Sperm cells from 3-4 different donors were pooled together after sperm preparation in order to obtain enough cells to screen 4-5 PDEi at the same time and additionally to reduced the variability. The first screening was performed with a NCM because it is the conditions normally used in clinic for intrauterine insemination (IUI). Accordingly, NCM is recommended to prevent capacitation before IUI (Björndahl et al., 2010)
Following isolation, sperm were mixed with DMSO (vehicle; 1% final concentration) or PDEi [all inhibitors were reconstituted into 1% DMSO]. Sperm cells were incubated for 20 min at 37° C. and the sperm motility was evaluated by using a Computer-Assisted-Sperm-Analysis (CASA, Ceros system [version 12]; Hamilton Thorne, Beverly, Mass.) and 4 chamber slides […] (Vitrolife, Sweden). Sperm motility was evaluated from 4 samples per treatment and at least 2,000 sperm cells were analyzed in total (see below). The setting of the CASA used was that established by the manufacturer for human spermatozoa.

[1] = tested on: poor sperm motility population; experiment: Sperm penetration assay in 1% methyl cellulose; format: cell-based, human; conditions: PDEi 100 μM, 20 minutes, scored at 1 cm distance, n=6 (FIG. 4)
Description: Methyl cellulose (1% concentration) was used to mimic cervical mucus viscosity and act as a sperm function test (Ivic et al., 2002). Sperm cells were previously treated with PDEi as described above. Glass tubes (5 cm×0.8 cm×2 mm; Vitrocom, NJ, USA) were loaded with methyl cellulose by capillary action (4,000 Sigma M-) prepared in NCM and one extremity was sealed with Cristaseal™ (Hawksley, Sussex, UK). The tubes was incubated with the sperm cells at 37° C. for 1 h 15 min, then the other extremity of the tube was sealed and the number of sperm cells scored at 1 cm and 2 cm using the CASA equipped with a 20× objective magnification. The microscope was adjusted to get the right focus manually at all planes to get the sum of the sperm migrated at this distance. The results are expressed as a penetration index calculated as the number of spermatozoa observed at the site of counting with treatment/the number of spermatozoa without treatment. The speed of sperm population at the migration distance was also analyzed.

In the case of `Cc1ccc([N+](=O)[O-])cc1S(=O)(=O)N(C)C` [BRL 50481], the “Effect on Sperm Motility: Mild” value (human sperm motility) is reported as “(X)”.

With `CC(C)C(=O)c1c(C(C)C)nn2ccccc12` [Ibudilast, 2-methyl-1-(2-propan-2-ylpyrazolo[1,5-a]pyridin-3-yl)propan-1-one] the “enhancement of sperm motility in a viscous solution (sperm penetration assay)” value (shortened to “enhancement of sperm motility”) [1] was “best PDEI's to enhance sperm motility in a viscous solution”.

`COc1ccc(Cc2nccc3cc(OC)c(OC)cc23)cc1OC` [Papaverine] was tested, and the “effect upon sperm motility” value (human sperm motility) was “greater than expected effect upon sperm motility” and the “enhancement of sperm motility” value [1] was “best PDEI's to enhance sperm motility in a viscous solution”.

`CCCCCC[C@@H]([C@@H](C)O)n1cnc2c(N)ncnc21.Cl` [EHNA hydrochloride] was tested, and the “Effect on Sperm Motility: Mild” value (human sperm motility) was “(X)”.

In the case of `CCC1C(C)=NN=C(c2ccc(OC)c(OC)c2)c2cc(OC)c(OC)cc21` (centres unmarked) [Tofisopam, 1-(3,4-dimethoxyphenyl)-5-ethyl-7,8-dimethoxy-4-methyl-5H-2,3-benzodiazepine], the “effect upon sperm motility” value (human sperm motility) is reported as “greater than expected effect upon sperm motility” and the “enhancement of sperm motility” value [1] is reported as “best PDEI's to enhance sperm motility in a viscous solution”.

With `CN(C(=O)CCCOc1ccc2[nH]c(=O)ccc2c1)C1CCCCC1` [Cilostamide] the “Effect on Sperm Motility: Strong” value (human sperm motility) was “(X)”.

For `COc1cc2c(cc1OC)-c1c/c(=N\c3c(C)cc(C)cc3C)n(C)c(=O)n1CC2` [Trequinsin hydrochloride], the “Effect on Sperm Motility: Strong” value (human sperm motility) was “(X)”.

`Cl.Cl.Nc1nc(-c2ccc(Cl)c(Cl)c2)c(-c2ccncc2)s1` [CGH 2466 dihydrochloride] was tested, and the “Effect on Sperm Motility: Mild” value (human sperm motility) was “(X)”.

For `CCOC(=O)C1=C[C@]2(CC)CCCN3CCc4c(n1c1ccccc41)[C@@H]32` [Vinpocetine], the “Effect on Sperm Motility: Mild” value (human sperm motility) was “(X)”.

Reference: patent US20150231149A1, “SPERM FUNCTION/ACTIVITY” (University of Dundee, priority 2011, published 2015)
